The values that follow come from ChEMBL document CHEMBL1201862, “PubChem BioAssay data set” (2004).

As usually defined, the GI50 is the concentration that inhibits growth by half.

Some test systems named below: NCI-H23; SN12C; CAKI-1; Hs-578T; LOX IMVI; OVCAR-8; 786-0; CCRF-CEM; RPMI-8226; EKVX; MDA-MB-435; SF-295; MDA-MB-231; SK-MEL-5; SK-OV-3; TK-10; KM12; SW-620; UACC-257; MCF7.
Common to all, as to test: DTP human tumour cell line panel, 48 h

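Test compounds were applied to cells in 96-well plates for 48 hours at 5 doses. Abbreviation: GI50, concentration required for 50% inhibition of growth.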 Active and inactive are the calls of the source. Cut-off read from the data, not from the text of the source: active = GI50 up to about 1.1 µM and inactive = higher. Bounds are passed on as bounds.

As for `COC(=O)Nc1nc2cc(Oc3ccc4nc(NC(=O)OC)[nH]c4c3)ccc2[nH]1`, the GI50 in the test with NCI-H23 is 1.81 µM (inactive); in the test on SN12C, 1.78 µM (inactive); in the test on CAKI-1 it was 2.32 µM (inactive); with Hs-578T, 0.975 µM (active); in the test on LOX IMVI it was 2.01 µM (inactive); in the test on OVCAR-8 it was 1.41 µM (inactive). Besides, the 50% growth inhibitory concentration (GI50) with 786-0 was 0.435 µM (active); with CCRF-CEM, 0.371 µM (active); in the test with RPMI-8226, 0.929 µM (active); in the test on EKVX, 3.67 µM (inactive); with MDA-MB-435, 0.115 µM (active); with SF-295 it was 1.58 µM (inactive). Further, the GI50 in the test with MDA-MB-231 is 1.68 µM (inactive); with SK-MEL-5, 0.687 µM (active); with SK-OV-3 it was 1.45 µM (inactive); in the test with TK-10, 4.78 µM (inactive); with KM12, 0.376 µM (active); in the test with SW-620 it was 0.855 µM (active).

For `Cn1c(=O)oc2cc(C(O)CN3CCN(Cc4ccc5c(c4)OCO5)CC3)ccc21` (stereo unspecified), the GI50 with NCI-H23, in the test with SN12C, with CAKI-1, in the test on LOX IMVI, in the test with OVCAR-8 and with 786-0 was > 100 µM (inactive) each time. The GI50 with CCRF-CEM, in the test on EKVX, in the test on MDA-MB-435, in the test on SF-295, with MDA-MB-231 and in the test on UACC-257 was > 100 µM (inactive) throughout. Besides, the GI50 in the test with SK-OV-3, in the test with MCF7, with TK-10, in the test on KM12 and in the test with SW-620 was > 100 µM (inactive) each time.

Turning to `c1cc(C[S+]2CCCC2)oc1C[S+]1CCCC1`, the GI50 in the test on NCI-H23, in the test with SN12C, in the test with CAKI-1, in the test on Hs-578T, with LOX IMVI and in the test with OVCAR-8 was > 100 µM (inactive) each time. In addition, the GI50 with 786-0, with CCRF-CEM, with EKVX, in the test with MDA-MB-435, in the test on SF-295 and in the test on MDA-MB-231 was > 100 µM (inactive) in each case. The GI50 with SK-MEL-5, in the test with UACC-257, with SK-OV-3, in the test with TK-10 and in the test on SW-620 was > 100 µM (inactive) in each case.

For the compound `CC(CC(C)(C)[N+](C)(C)C)[N+](C)(C)C` (stereo unspecified), the GI50 in the test with NCI-H23, in the test with SN12C, in the test on CAKI-1, in the test with OVCAR-8, with 786-0 and in the test on CCRF-CEM was > 100 µM (inactive) each time. The GI50 with RPMI-8226, in the test on EKVX, in the test on SF-295, with SK-MEL-5, in the test with UACC-257 and in the test with SK-OV-3 was > 100 µM (inactive) each time. Moreover, the GI50 in the test with MCF7, in the test on TK-10, with KM12 and in the test on SW-620 was > 100 µM (inactive) throughout.

Turning to `COC(=O)c1cc(OCc2cc(OCc3ccc(Br)cc3)cc(OCc3ccc(Br)cc3)c2)cc(OCc2cc(OCc3ccc(Br)cc3)cc(OCc3ccc(Br)cc3)c2)c1`, the GI50 in the test with NCI-H23, in the test with SN12C, in the test with CAKI-1, in the test with 786-0, in the test on RPMI-8226 and with EKVX was > 100 µM (inactive) in each case. For the same compound, the GI50 in the test with MDA-MB-435, in the test on SF-295, in the test on MDA-MB-231, in the test on SK-MEL-5, with UACC-257 and in the test on SK-OV-3 was > 100 µM (inactive) throughout. Also, the GI50 in the test with MCF7, with TK-10 and with KM12 was > 100 µM (inactive) throughout.

For `FC1OC2OC1C(OCc1ccccc1)C(OCc1ccccc1)C2OCc1ccccc1` (stereo unspecified), the GI50 is > 100 µM (inactive) in the test with NCI-H23; 58.6 µM (inactive) in the test on SN12C; 35.5 µM (inactive) in the test with CAKI-1; 43.8 µM (inactive) in the test on LOX IMVI; 35.4 µM (inactive) in the test on OVCAR-8; 43.2 µM (inactive) in the test on 786-0. Besides, the GI50 in the test on CCRF-CEM is 26.6 µM (inactive); in the test on RPMI-8226, 22.9 µM (inactive); in the test on EKVX, 87.7 µM (inactive); with SF-295, > 100 µM (inactive); with SK-MEL-5, 45.6 µM (inactive); in the test with UACC-257 it was 35.5 µM (inactive). The GI50 in the test on SK-OV-3 was > 100 µM (inactive); in the test with TK-10, 52.8 µM (inactive); in the test on KM12 it was 49.1 µM (inactive); in the test with SW-620, 40.6 µM (inactive).

For the compound `CC(C)(C)[Si](C)(C)OCC1OC(n2ccc(=O)[nH]c2=O)C(O[Si](C)(C)C(C)(C)C)[C@]12O[C@@H]2CO` (stereo partly specified), the GI50 with NCI-H23 is 14.1 µM (inactive); in the test on SN12C it was 15.7 µM (inactive); in the test with CAKI-1, 20.4 µM (inactive); in the test with LOX IMVI, 16.3 µM (inactive); in the test on OVCAR-8, 29 µM (inactive); in the test with 786-0 it was 18.2 µM (inactive). Further, the GI50 was > 10 µM (inactive) with CCRF-CEM; 55.3 µM (inactive) in the test on RPMI-8226; 17 µM (inactive) in the test with EKVX; 16 µM (inactive) in the test with MDA-MB-435; 10.3 µM (inactive) in the test with SF-295; 19.5 µM (inactive) in the test with MDA-MB-231. The GI50 with SK-MEL-5 was 14 µM (inactive); in the test with UACC-257 it was 18.2 µM (inactive); in the test with SK-OV-3, 15.6 µM (inactive); in the test with MCF7 it was 12.1 µM (inactive); in the test with TK-10, 14.8 µM (inactive); with KM12 it was 14.8 µM (inactive). Further, the GI50 in the test with SW-620 was 20.2 µM (inactive).

`COc1ccc(-n2sc3ncc(-c4ccccc4)cc3c2=O)cc1`: the GI50 is 23.3 µM (inactive) in the test on NCI-H23; 27.9 µM (inactive) with SN12C; 27.4 µM (inactive) in the test with CAKI-1; 32.1 µM (inactive) in the test with LOX IMVI; 25.5 µM (inactive) with OVCAR-8; 18.6 µM (inactive) with 786-0. For the same compound, the GI50 with CCRF-CEM is 39.4 µM (inactive); in the test with RPMI-8226 it was 18.2 µM (inactive); with EKVX, 69.5 µM (inactive); in the test with MDA-MB-435, 40.6 µM (inactive); in the test with SF-295, > 100 µM (inactive); in the test on SK-MEL-5, 55.2 µM (inactive). Besides, the GI50 was 57.8 µM (inactive) in the test with UACC-257; > 100 µM (inactive) with SK-OV-3; 28.6 µM (inactive) with MCF7; 66.1 µM (inactive) in the test with TK-10; 50 µM (inactive) with KM12; 30.7 µM (inactive) in the test with SW-620.

As for `CCN(CC)CC(C)C(=O)/C=C/c1ccc(C)cc1` (stereo unspecified), the GI50 with NCI-H23 was 6.31 µM (inactive); with SN12C it was 1.63 µM (inactive); in the test with CAKI-1 it was 1.22 µM (inactive); in the test with LOX IMVI, 1.29 µM (inactive); with OVCAR-8, 2.07 µM (inactive); in the test on 786-0 it was 1.88 µM (inactive). Moreover, the GI50 with CCRF-CEM was 3.05 µM (inactive); with RPMI-8226, 1.64 µM (inactive); in the test on EKVX it was 13.8 µM (inactive); in the test with SF-295 it was 15 µM (inactive); in the test with SK-MEL-5 it was 5.02 µM (inactive); in the test on UACC-257 it was 2.23 µM (inactive). Also, the GI50 in the test with SK-OV-3 was 17 µM (inactive); in the test on TK-10, 2.03 µM (inactive); in the test with KM12 it was 0.502 µM (active); with SW-620 it was 1.57 µM (inactive).

With `CCSCN(C)c1nc(N(C)C)nc(N(C)C)n1`, the GI50 in the test with NCI-H23 was 33.6 µM (inactive); with SN12C, 77.6 µM (inactive); with CAKI-1 it was 68.2 µM (inactive); in the test with LOX IMVI, 41.3 µM (inactive); in the test on OVCAR-8 it was 81.5 µM (inactive); in the test on 786-0, 36.7 µM (inactive). Besides, the GI50 is 48.1 µM (inactive) in the test with CCRF-CEM; 49.1 µM (inactive) in the test with RPMI-8226; > 100 µM (inactive) in the test on EKVX; 92.3 µM (inactive) in the test with SF-295; 39.9 µM (inactive) in the test with SK-MEL-5; 43 µM (inactive) with UACC-257. In addition, the GI50 with SK-OV-3 was > 100 µM (inactive); with TK-10, > 100 µM (inactive); with KM12 it was 35.3 µM (inactive); in the test with SW-620 it was 35.9 µM (inactive).

For `c1ccc2c(c1)c(N1CCCCC1)cc1nc3c(cc(N4CCCCC4)c4ccccc43)nc12`, the GI50 with NCI-H23, in the test on SN12C, with CAKI-1, in the test with LOX IMVI, with OVCAR-8 and in the test with 786-0 was > 100 µM (inactive) each time. The GI50 in the test with CCRF-CEM, in the test on RPMI-8226, in the test with EKVX, in the test on MDA-MB-435, in the test on SF-295 and in the test on MDA-MB-231 was > 100 µM (inactive) throughout. For the same compound, the GI50 with SK-MEL-5, in the test with UACC-257, with SK-OV-3, in the test on MCF7, in the test on KM12 and in the test with SW-620 was > 100 µM (inactive) in each case.
